Laboratory results published in PubChem BioAssay (NCI).
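All cell lines were grown in 96-well plates and treated with compound for 48 hours. GI50: concentration for 50% inhibition of growth. TGI is the concentration that stops growth completely.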

Columns and labels:
Assay in all cases: inhibition of tumour cell growth, NCI panel, 48 h
LOX IMVI melanoma = system: LOX IMVI melanoma
HT29 colon = system: HT29 colon
UACC-62 melanoma = system: UACC-62 melanoma
SK-MEL-5 melanoma = system: SK-MEL-5 melanoma
786-0 renal = system: 786-0 renal
NCI-H23 lung = system: NCI-H23 lung
OVCAR-4 ovarian = system: OVCAR-4 ovarian
TK-10 renal = system: TK-10 renal
CAKI-1 renal = system: CAKI-1 renal
BT-549 breast = system: BT-549 breast
MOLT-4 leukemia = system: MOLT-4 leukemia
IGROV1 ovarian = system: IGROV1 ovarian
SN12C renal = system: SN12C renal
NCI/ADR-RES ovarian = system: NCI/ADR-RES ovarian
RPMI-8226 leukemia = system: RPMI-8226 leukemia
HL-60(TB) leukemia = system: HL-60(TB) leukemia
SK-MEL-2 melanoma = system: SK-MEL-2 melanoma
RXF 393 renal = system: RXF 393 renal
DU-145 prostate = system: DU-145 prostate
UACC-257 melanoma = system: UACC-257 melanoma
SNB-19 CNS = system: SNB-19 CNS
SF-268 CNS = system: SF-268 CNS
OVCAR-8 ovarian = system: OVCAR-8 ovarian
U251 CNS = system: U251 CNS
NCI-H460 lung = system: NCI-H460 lung
K-562 leukemia = system: K-562 leukemia
SNB-75 CNS = system: SNB-75 CNS
UO-31 renal = system: UO-31 renal
MDA-MB-231 breast = system: MDA-MB-231 breast
HS 578T breast = system: HS 578T breast
SW-620 colon = system: SW-620 colon
HCT-116 colon = system: HCT-116 colon
SK-MEL-28 melanoma = system: SK-MEL-28 melanoma
SF-295 CNS = system: SF-295 CNS
HCT-15 colon = system: HCT-15 colon
SF-539 CNS = system: SF-539 CNS
HOP-62 NSCLC = system: HOP-62 NSCLC
A549 NSCLC = system: A549 NSCLC
HCC-2998 colon = system: HCC-2998 colon
M14 melanoma = system: M14 melanoma
SK-OV-3 ovarian = system: SK-OV-3 ovarian
KM12 colon = system: KM12 colon
NCI-H226 lung = system: NCI-H226 lung
T-47D breast = system: T-47D breast
COLO 205 colon = system: COLO 205 colon
EKVX NSCLC = system: EKVX NSCLC
HOP-92 NSCLC = system: HOP-92 NSCLC
ACHN renal = system: ACHN renal
NCI-H522 lung = system: NCI-H522 lung
SR leukemia = system: SR leukemia
MDA-MB-435 = system: MDA-MB-435
PC-3 prostate = system: PC-3 prostate
MCF7 breast = system: MCF7 breast
OVCAR-3 ovarian = system: OVCAR-3 ovarian
CCRF-CEM leukemia = system: CCRF-CEM leukemia
A498 renal = system: A498 renal
OVCAR-5 ovarian = system: OVCAR-5 ovarian
MALME-3M melanoma = system: MALME-3M melanoma

In the case of `Oc1ccc(-c2nc3ccc4[nH]ncc4c3c3c2CCCC3)c2cccnc12`, the GI50 (LOX IMVI melanoma) was 203 nM, the TGI (LOX IMVI melanoma) was 4.01 µM and the GI50 (HT29 colon) was 1090 nM. For the same compound, the TGI (HT29 colon) was 6.73 µM, the GI50 (UACC-62 melanoma) was 512 nM and the TGI (UACC-62 melanoma) was 1970 nM. For the same compound, the GI50 (SK-MEL-5 melanoma) was 597 nM, the TGI (SK-MEL-5 melanoma) was 1560 nM and the GI50 (786-0 renal) was 435 nM. For the same compound, the TGI (786-0 renal) was 3.95 µM, the GI50 (NCI-H23 lung) was 158 nM and the TGI (NCI-H23 lung) was 1660 nM. It also gave a GI50 (OVCAR-4 ovarian) of 781 nM, a TGI (OVCAR-4 ovarian) of 6.06 µM and a GI50 (TK-10 renal) of 496 nM. For the same compound, the TGI (TK-10 renal) was 7.01 µM, the GI50 (CAKI-1 renal) was 120 nM and the TGI (CAKI-1 renal) was 886 nM. For the same compound, the GI50 (BT-549 breast) was 421 nM, the TGI (BT-549 breast) was 2580 nM and the GI50 (MOLT-4 leukemia) was 393 nM. For the same compound, the TGI (MOLT-4 leukemia) was 12.8 µM, the GI50 (IGROV1 ovarian) was 196 nM and the TGI (IGROV1 ovarian) was 4.06 µM. The GI50 (SN12C renal) was 206 nM, the TGI (SN12C renal) was 6.79 µM and the GI50 (NCI/ADR-RES ovarian) was 167 nM. The TGI (NCI/ADR-RES ovarian) was 4.61 µM, the GI50 (RPMI-8226 leukemia) was 158 nM and the TGI (RPMI-8226 leukemia) was 4.12 µM. The GI50 (HL-60(TB) leukemia) was 639 nM, the TGI (HL-60(TB) leukemia) was 3.14 µM and the GI50 (SK-MEL-2 melanoma) was 452 nM. The TGI (SK-MEL-2 melanoma) was 3.5 µM, the GI50 (RXF 393 renal) was 266 nM and the TGI (RXF 393 renal) was 2440 nM. The GI50 (DU-145 prostate) was 500 nM, the TGI (DU-145 prostate) was 8.13 µM and the GI50 (UACC-257 melanoma) was 888 nM. It also gave a TGI (UACC-257 melanoma) of 3.68 µM, a GI50 (SNB-19 CNS) of 164 nM and a TGI (SNB-19 CNS) of 13.1 µM. For the same compound, the GI50 (SF-268 CNS) was 239 nM, the TGI (SF-268 CNS) was 5.24 µM and the GI50 (OVCAR-8 ovarian) was 148 nM. It also gave a TGI (OVCAR-8 ovarian) of 10.8 µM, a GI50 (U251 CNS) of 143 nM and a TGI (U251 CNS) of 5.97 µM. The GI50 (NCI-H460 lung) was 122 nM, the TGI (NCI-H460 lung) was 863 nM and the GI50 (K-562 leukemia) was 139 nM. It also gave a TGI (K-562 leukemia) of 33.3 µM, a GI50 (SNB-75 CNS) of 132 nM and a TGI (SNB-75 CNS) of 1060 nM. The GI50 (UO-31 renal) was 128 nM, the TGI (UO-31 renal) was 934 nM and the GI50 (MDA-MB-231 breast) was 423 nM. It also gave a TGI (MDA-MB-231 breast) of 6.79 µM, a GI50 (HS 578T breast) of 163 nM and a TGI (HS 578T breast) of 2670 nM. The GI50 (SW-620 colon) was 123 nM, the TGI (SW-620 colon) was 11.1 µM and the GI50 (HCT-116 colon) was 228 nM. For the same compound, the TGI (HCT-116 colon) was 4.14 µM, the GI50 (SK-MEL-28 melanoma) was 498 nM and the TGI (SK-MEL-28 melanoma) was 8.61 µM. For the same compound, the GI50 (SF-295 CNS) was 339 nM, the TGI (SF-295 CNS) was 2680 nM and the GI50 (HCT-15 colon) was 153 nM. For the same compound, the TGI (HCT-15 colon) was 7.3 µM, the GI50 (SF-539 CNS) was 145 nM and the TGI (SF-539 CNS) was 1870 nM. For the same compound, the GI50 (HOP-62 NSCLC) was 160 nM, the TGI (HOP-62 NSCLC) was 1710 nM and the GI50 (A549 NSCLC) was 134 nM. The TGI (A549 NSCLC) was 2140 nM, the GI50 (HCC-2998 colon) was 319 nM and the TGI (HCC-2998 colon) was 5.45 µM. The GI50 (M14 melanoma) was 163 nM, the TGI (M14 melanoma) was 2210 nM and the GI50 (SK-OV-3 ovarian) was 509 nM. The TGI (SK-OV-3 ovarian) was 2260 nM, the GI50 (KM12 colon) was 311 nM and the TGI (KM12 colon) was 7.93 µM. It also gave a GI50 (NCI-H226 lung) of 1220 nM, a TGI (NCI-H226 lung) of 5.79 µM and a GI50 (T-47D breast) of 697 nM. It also gave a TGI (T-47D breast) of 4.67 µM, a GI50 (COLO 205 colon) of 890 nM and a TGI (COLO 205 colon) of 2420 nM. It also gave a GI50 (EKVX NSCLC) of 329 nM, a TGI (EKVX NSCLC) of 2240 nM and a GI50 (HOP-92 NSCLC) of 110 nM. The TGI (HOP-92 NSCLC) was 794 nM, the GI50 (ACHN renal) was 181 nM and the TGI (ACHN renal) was 3.07 µM. For the same compound, the GI50 (NCI-H522 lung) was 119 nM, the TGI (NCI-H522 lung) was 5.2 µM and the GI50 (SR leukemia) was 120 nM. For the same compound, the TGI (SR leukemia) was 7.79 µM, the GI50 (MDA-MB-435) was 148 nM and the TGI (MDA-MB-435) was 2770 nM. For the same compound, the GI50 (PC-3 prostate) was 389 nM, the TGI (PC-3 prostate) was 6.56 µM and the GI50 (MCF7 breast) was 179 nM. The TGI (MCF7 breast) was 2890 nM, the GI50 (OVCAR-3 ovarian) was 491 nM and the TGI (OVCAR-3 ovarian) was 7.3 µM. For the same compound, the GI50 (CCRF-CEM leukemia) was 204 nM, the TGI (CCRF-CEM leukemia) was 11.8 µM and the GI50 (A498 renal) was 779 nM. For the same compound, the TGI (A498 renal) was 2190 nM, the GI50 (OVCAR-5 ovarian) was 1160 nM and the TGI (OVCAR-5 ovarian) was 14.7 µM. For the same compound, the GI50 (MALME-3M melanoma) was 523 nM and the TGI (MALME-3M melanoma) was 2610 nM.
